Assay results reported in PMC8176444 (Molecular Biology Reports, 2021).

Target: T1, angiotensin-converting enzyme (ACE) (Ovis aries, UniProt A0ACI6QSL6)
T1 sequence (A0ACI6QSL6 34-1310): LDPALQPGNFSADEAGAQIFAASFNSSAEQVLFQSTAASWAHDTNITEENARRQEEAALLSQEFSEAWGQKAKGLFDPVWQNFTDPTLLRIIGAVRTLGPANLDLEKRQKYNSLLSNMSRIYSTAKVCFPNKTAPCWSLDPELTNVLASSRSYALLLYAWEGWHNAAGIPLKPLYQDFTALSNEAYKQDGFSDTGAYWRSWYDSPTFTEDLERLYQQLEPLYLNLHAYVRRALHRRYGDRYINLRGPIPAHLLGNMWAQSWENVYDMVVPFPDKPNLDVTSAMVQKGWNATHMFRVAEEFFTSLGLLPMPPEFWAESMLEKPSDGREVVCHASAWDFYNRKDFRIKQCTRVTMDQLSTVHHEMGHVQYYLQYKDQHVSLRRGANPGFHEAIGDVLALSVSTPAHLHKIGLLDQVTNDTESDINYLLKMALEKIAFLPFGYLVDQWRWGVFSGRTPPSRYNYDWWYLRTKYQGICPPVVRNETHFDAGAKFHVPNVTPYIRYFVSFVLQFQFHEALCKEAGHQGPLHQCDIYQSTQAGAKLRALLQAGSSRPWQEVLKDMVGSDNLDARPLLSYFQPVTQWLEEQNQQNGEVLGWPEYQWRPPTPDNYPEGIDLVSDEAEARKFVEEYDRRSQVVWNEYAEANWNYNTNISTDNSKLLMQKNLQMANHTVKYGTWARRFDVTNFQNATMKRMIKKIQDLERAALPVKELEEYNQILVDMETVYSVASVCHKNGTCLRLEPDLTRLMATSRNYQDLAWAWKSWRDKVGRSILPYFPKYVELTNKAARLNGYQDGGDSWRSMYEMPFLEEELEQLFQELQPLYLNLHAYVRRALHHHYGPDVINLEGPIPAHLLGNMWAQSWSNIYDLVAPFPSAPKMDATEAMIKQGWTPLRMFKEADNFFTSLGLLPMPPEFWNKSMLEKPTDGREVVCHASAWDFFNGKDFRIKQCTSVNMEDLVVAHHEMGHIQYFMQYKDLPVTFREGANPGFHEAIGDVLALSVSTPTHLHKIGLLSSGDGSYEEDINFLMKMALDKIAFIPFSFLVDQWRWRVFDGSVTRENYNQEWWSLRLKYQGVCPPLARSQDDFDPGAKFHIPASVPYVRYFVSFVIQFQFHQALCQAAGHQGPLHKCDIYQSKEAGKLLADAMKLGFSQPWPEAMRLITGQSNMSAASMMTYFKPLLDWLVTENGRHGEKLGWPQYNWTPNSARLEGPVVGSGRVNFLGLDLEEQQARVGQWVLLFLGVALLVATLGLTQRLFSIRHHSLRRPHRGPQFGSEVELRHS
Test: spectrophotometric FAPGG hydrolysis assay at […] nm
Assay type: biochemical

## C[C@H](CS)C(=O)N1CCC[C@H]1C(=O)O [captopril]
  Ki: 0.39 nM
